In brackets after ≈: the same amount, converted by molar mass.
What was measured:
solubility = format: physicochemical
Escherichia coli = assay: MIC by agar dilution technique; format: cell-based; conditions: 37° C., 18 hours
Experimental: (§1) The minimum inhibitory concentration (MIC) of aerocavin was determined by an agar dilution technique. The test organisms were prepared from frozen stocks and diluted to give a final level of 10^7 CFU/ml (CFU is colony forming units). Aerocavin was dissolved in the appropriate diluent at a concentration of 1,000 μg/ml. Two fold dilutions were made in Yeast Beef Broth (Difco), resulting in a range from 1,000 μg/ml to 0.5 μg/ml. A 1.5 ml sample of each dilution was placed into individual petri dishes to which 13.5 ml of K-10 agar* was added. The final drug concentration in the agar ranged from 100 μg/ml to 0.05 μg/ml. Organism growth control plates containing agar only were prepared and inoculated before and after the test plates. The organisms were applied to the surface of each plate with the Denley Multipoint Inoculator (which delivers approximately 0.001 ml of each organism) resulting in a final inoculum level of 10^4 CFU on the agar surface.
(§2) The plates were incubated at 37° C. for 18 hours and the MIC's then determined. The MIC is the lowest concentration of compound inhibiting growth of the organism.
(§3) Using the methodology described for the determination of the biological activity of aerocavin, the biological activity of aerocyanidin was determined.

Pseudomonas aeruginosa = assay: MIC by agar dilution technique; format: cell-based; conditions: 37° C., 18 hours
Experimental: as §1, §2, §3

Staphylococcus aureus = assay: MIC by agar dilution technique; format: cell-based; conditions: 37° C., 18 hours
Experimental: as §1, §2, §3

gram positive organisms = assay: activity against gram positive organisms; format: cell-based
[1] = test system: Acinetobacter calcoaceticus; assay: MIC by agar dilution technique; format: cell-based; conditions: SC8333, SC No. 8333, 10^4 CFU, 37° C., 18 hours
Experimental: as §1, with “surface. |*K-10 agar The plates were incubated at 37° C. for 18 hours and the MIC's then determined. The MIC is the lowest concentration of compound inhibiting growth of the organism.” for “surface.”

[2] = test system: Staphylococcus epidermidis; assay: MIC by agar dilution technique; format: cell-based; conditions: 37° C., 18 hours
Experimental: as §1, with “surface. |*K-10 agar The plates were incubated at 37° C. for 18 hours and the MIC's then determined. The MIC is the lowest concentration of compound inhibiting growth of the organism.” for “surface.”

Streptococcus faecalis = assay: MIC by agar dilution technique; format: cell-based; conditions: Enterococcus faecalis, SC9011; SC No. 9011; 10^4 CFU, 37° C., 18 hours
Experimental: as §1, §2, §3

Enterobacter cloacae = assay: MIC by agar dilution technique; format: cell-based; conditions: SC8236, SC No. 8236, 10^4 CFU, 37° C., 18 hours
Experimental: as §1, §2, §3

Shigella sonnei = assay: MIC by agar dilution technique; format: cell-based; conditions: SC8449, SC No. 8449, 10^4 CFU, 37° C., 18 hours
Experimental: as §1, §2, §3

Klebsiella aerogenes = assay: MIC by agar dilution technique; format: cell-based; conditions: SC10440, SC No. 10440, 10^4 CFU, 37° C., 18 hours
Experimental: as §1, §2, §3

Klebsiella pneumoniae = assay: MIC by agar dilution technique; format: cell-based; conditions: SC9527, SC No. 9527, 10^4 CFU, 37° C., 18 hours
Experimental: as §1, §2, §3

Proteus mirabilis = assay: MIC by agar dilution technique; format: cell-based; conditions: SC3855, SC No. 3855, 10^4 CFU, 37° C., 18 hours
Experimental: as §1, §2, §3

Micrococcus luteus = assay: MIC by agar dilution technique; format: cell-based; conditions: SC2495, SC No. 2495, 10^4 CFU, 37° C., 18 hours
Experimental: as §1, §2, §3

Streptococcus agalactiae = assay: MIC by agar dilution technique; format: cell-based; conditions: SC9287, SC No. 9287, 10^4 CFU, 37° C., 18 hours
Experimental: as §1, §2, §3

Salmonella typhosa = assay: MIC by agar dilution technique; format: cell-based; conditions: Salmonella enterica, SC1195 / TYPHOSA, 18 h
Experimental: as §1, §2, §3

stability on storage = format: physicochemical; conditions: solid state, compared with ethyl acetate solution at 4° C.

Structure (SMILES): CCCCCCCCC[C@@H](O)C[C@H]1C[C@H](O)C/C(C)=C/C/C=C/C/C(CC(=O)O)=C\C(=O)O1 (relative stereo) [aerocavin, [3E,6E,9E,12α,14β(R*)]-12-hydroxy-14-(2-hydroxyundecyl)-10-methyl-2-oxooxacyclotetradeca-3,6,9-triene-4-acetic acid]
- solubility (solubility; in heptane): less soluble
- solubility (solubility; in methanol, acetone, ethyl acetate): substantially soluble
- solubility (solubility; in water): insoluble
- MIC (Escherichia coli; SC8294, SC No. 8294, 10^4 CFU): 100 µg/mL (≈ 215 µM)
- MIC (Escherichia coli; SC10857, SC No. 10857, 10^4 CFU): 12.5 µg/mL (≈ 26.9 µM)
- MIC (Pseudomonas aeruginosa; SC9545, SC No. 9545, 10^4 CFU): 25 µg/mL (≈ 53.8 µM)
- MIC (Staphylococcus aureus; SC1276, SC No. 1276, 10^4 CFU): 6.3 µg/mL (≈ 13.6 µM)
- MIC (Staphylococcus aureus; SC2399, SC No. 2399, 10^4 CFU): 6.3 µg/mL (≈ 13.6 µM)
- MIC (Staphylococcus aureus; SC9593, SC No. 9593 (Penicillin^R), 10^4 CFU): 6.3 µg/mL (≈ 13.6 µM)
- MIC (Staphylococcus aureus; SC10016, SC No. 10016 (Tetracycline^R), 10^4 CFU): 3.1 µg/mL (≈ 6.67 µM)
- MIC (Staphylococcus aureus; SC10820, SC No. 10820 (Erythromycin^R), 10^4 CFU): 3.1 µg/mL (≈ 6.67 µM)
- activity against gram positive organisms (gram positive organisms): has activity against gram positive organisms
- MIC [1]: 12.5 µg/mL (≈ 26.9 µM)
- MIC ([2]; SC9052, SC No. 9052, 10^4 CFU): 6.3 µg/mL (≈ 13.6 µM)
- MIC ([2]; SC10547, SC No. 10547 (Penicillin^R), 10^4 CFU): 3.1 µg/mL (≈ 6.67 µM)

Structure (SMILES): [C-]#[N+][C@]1(C)O[C@@H]1[C@H](O)CCCCCCCCCC(=O)O (relative stereo) [aerocyanidin, [2α(R*),3α]-κ-hydroxy-3-isocyano-3-methyloxiraneundecanoic acid]
- MIC (Streptococcus faecalis): 0.2 µg/mL (≈ 0.706 µM)
- MIC (Escherichia coli; SC8294, SC No. 8294, 10^4 CFU): > 50 µg/mL
- MIC (Escherichia coli; SC10896, SC No. 10896, 10^4 CFU): 25 µg/mL (≈ 88.2 µM)
- MIC (Escherichia coli; SC10909, SC No. 10909, 10^4 CFU): 1.6 µg/mL (≈ 5.65 µM)
- MIC (Enterobacter cloacae): 50 µg/mL (≈ 176 µM)
- MIC (Shigella sonnei): 25 µg/mL (≈ 88.2 µM)
- MIC (Pseudomonas aeruginosa; SC8329, SC No. 8329, 10^4 CFU): > 50 µg/mL
- MIC (Klebsiella aerogenes): > 50 µg/mL
- MIC (Klebsiella pneumoniae): > 50 µg/mL
- MIC (Proteus mirabilis): 1.6 µg/mL (≈ 5.65 µM)
- MIC (Micrococcus luteus): 0.4 µg/mL (≈ 1.41 µM)
- MIC (Streptococcus agalactiae): < 0.05 µg/mL
- MIC (Staphylococcus aureus; SC1276, SC No. 1276, 10^4 CFU): < 0.05 µg/mL
- MIC (Staphylococcus aureus; SC2399, SC No. 2399, 10^4 CFU): < 0.05 µg/mL
- MIC (Staphylococcus aureus; SC2400, SC No. 2400, 10^4 CFU): < 0.05 µg/mL
- MIC (Salmonella typhosa): 25 µg/mL (≈ 88.2 µM)
- activity against gram positive organisms (gram positive organisms): has activity against gram positive organisms
- stability (stability on storage): less stable in the solid state

From US4745202A, “Aerocyanidin-antibiotic” (E. R. Squibb & Sons, Inc., priority 1987, dated 1988)
